Data published in ChEMBL document CHEMBL3785018, “Pharmacokinetics/pharmacodynamics of acetaminophen analgesia in Japanese patients with chronic pain” (Biol Pharm Bull, 2007).
Values after ≈ are worked out from the molar mass of the structure shown.

Columns and labels:
[1] = Tmax in Japanese chronic pain patient at 600 to 1000 mg, po administered as single dose by fluorescence polarization immunoassay; assay type: ADME, organism-based; settings: human, in vivo
[2] = tested on: Homo sapiens; test: Analgesic activity in Japanese chronic pain patient (5 patients) assessed as sigmoid factor at 800 +/- 141 mg, po administered as single dose measured over 15 mins to 6 hrs; assay type: functional
[3] = Tmax in Japanese healthy volunteer (5 volunteers) at 1000 mg, po by HPLC method; assay type: ADME, organism-based; settings: human, in vivo
[4] = Apparent volume of distribution in Japanese chronic pain patient (5 patients) at 800 +/- 141 mg, po administered as single dose by fluorescence polarization immunoassay; assay type: ADME, organism-based; settings: human, in vivo
[5] = AUC (0 to infinity) in Japanese healthy volunteer (5 volunteers) at 1000 mg, po by HPLC method; assay type: ADME, organism-based; parameters: dose 1000 mg, route oral, time infinity; settings: human, in vivo
[6] = tested on: Homo sapiens; test: AUC (0 to infinity) in Japanese healthy volunteer (5 volunteers) assessed as acetaminophen-glucuronide at 1000 mg, po by HPLC method; assay type: ADME, organism-based; parameters: dose 1000 mg, time infinity, route oral; settings: in vivo
[7] = tested on: Homo sapiens; test: Analgesic activity in Japanese chronic pain patient (5 patients) assessed as maximum pain relief score at 800 +/- 141 mg, po administered as single dose measured over 15 mins to 6 hrs; assay type: functional
[8] = tested on: Homo sapiens; test: Toxicity in Japanese healthy volunteer (5 volunteers) at 1000 mg, po; assay type: organism-based; settings: in vivo
[9] = tested on: Homo sapiens; test: AUC (0 to infinity) in Japanese healthy volunteer (5 volunteers) assessed as acetaminophen-cysteine at 1000 mg, po by HPLC method; assay type: ADME, organism-based; parameters: dose 1000 mg, time infinity, route oral; settings: in vivo
[10] = tested on: Homo sapiens; test: Analgesic activity in po dosed Japanese chronic pain patient (5 patients) assessed as compound dose require to cause 50% maximum pain relief score administered as single dose measured over 15 mins to 6 hrs; assay type: functional, organism-based
[11] = Drug uptake in Japanese chronic pain patient at 600 to 1000 mg, po administered as single dose after 4 hrs by fluorescence polarization immunoassay; assay type: ADME, organism-based; settings: human, in vivo, read-out: Drug uptake
[12] = Cmax in Japanese healthy volunteer (5 volunteers) at 1000 mg, po by HPLC method; assay type: ADME, organism-based; parameters: dose 1000 mg, route oral; settings: human, in vivo
[13] = tested on: Homo sapiens; test: Toxicity in Japanese chronic pain patient at 600 to 1000 mg, po administered as single dose; assay type: organism-based; settings: in vivo
[14] = Drug uptake in human after 4 hrs; assay type: ADME, organism-based; settings: in vivo, read-out: Drug uptake
[15] = Apparent volume of distribution in Japanese healthy volunteer (5 volunteers) at 1000 mg, po by HPLC method; assay type: ADME, organism-based; settings: human, in vivo
[16] = tested on: Homo sapiens; test: AUC (0 to infinity) in Japanese healthy volunteer (5 volunteers) assessed as acetaminophen-sulfate at 1000 mg, po by HPLC method; assay type: ADME, organism-based; parameters: dose 1000 mg, route oral, time infinity; settings: in vivo
[17] = tested on: Homo sapiens; test: Drug metabolism in Japanese healthy volunteer assessed as acetaminophen-cysteine metabolite formation at 1000 mg, po by HPLC method; assay type: ADME, organism-based; settings: in vivo
[18] = tested on: Homo sapiens; test: Drug level in Japanese healthy volunteer treated with acetaminophen at 1000 mg, po by HPLC method; assay type: ADME, organism-based; settings: in vivo

**Q.** With `CC(=O)Nc1ccc(O)cc1` [ACETAMINOPHEN] as the molecule, how does the Tmax [1] read?
**A.** Its Tmax is 30 min.

**Q.** And the Activity [2]?
**A.** Its Activity is 1.3.

**Q.** What about the Tmax [3] of the same molecule?
**A.** The Tmax was 30 min.

**Q.** And the Vd/F [4]?
**A.** The Vd/F was 30.9 L.

**Q.** What about the AUC(0-inf) [5] of the same molecule?
**A.** Its AUC(0-inf) is 77800 ng·h/mL.

**Q.** And the AUC [6]?
**A.** The AUC was 66000 ng·h/mL.

**Q.** What about the Emax [7] of the same molecule?
**A.** The Emax was 4.6.

**Q.** What about the Activity [8] of the same molecule?
**A.** Its Activity is “Non-toxic”.

**Q.** And the AUC [9]?
**A.** Its AUC is 3700 ng·h/mL.

**Q.** What about the EC50 [10] of the same molecule?
**A.** The EC50 was 2 µg/mL (≈ 13.2 µM).

**Q.** And the concentration at 4 h [11]?
**A.** The concentration at 4 h was 6700 ng/mL.

**Q.** What about the Cmax [12] of the same molecule?
**A.** The Cmax was 17700 ng/mL.

**Q.** What about the Activity [13] of the same molecule?
**A.** Its Activity is “Non-toxic”.

**Q.** What about the concentration at 4 h [14] of the same molecule?
**A.** The concentration at 4 h was 120000 ng/mL.

**Q.** What about the Vd/F [15] of the same molecule?
**A.** Its Vd/F is 69.7 L.

**Q.** What about the AUC [16] of the same molecule?
**A.** The AUC was 21000 ng·h/mL.

**Q.** What about the Drug metabolism [17] of the same molecule?
**A.** The Drug metabolism was less than 0.2 µg/mL.

**Q.** With `CC(=O)Nc1ccc(O)c(SC[C@H](N)C(=O)O)c1` as the molecule, how does the Drug metabolism [18] read?
**A.** The Drug metabolism was “metabolite_detected”.
